Active and inactive are the calls of the source. The calls are words filed in the database; no cut-off is given here.
Columns and labels:
LN-405 [1] = experiment: Cytotoxicity against human LN405 cells assessed as decrease in cell viability at 100 uM after 96 hrs by MTT assay; format: functional, cell-based
LN-405 [2] = experiment: Cytotoxicity against human LN405 cells assessed as cell viability at 100 uM after 96 hrs by MTT assay relative to control; format: functional; settings: LN-405, 96 h, read-out: Activity
LN-405 [3] = experiment: Cytotoxicity against human LN405 cells assessed as decrease in cell viability after 96 hrs by MTT assay; format: functional, cell-based; settings: LN-405, 96 h
LN-405 [4] = experiment: Induction of DNA damage in human LN405 cells assessed as cell with damage DNA at IC50 after 72 hrs by COMET assay (reference value: 0.7%); format: functional
[5] = Cytotoxicity against human WS1 cells assessed as decrease in cell viability after 96 hrs by MTT assay; format: cell-based; settings: WS1, 96 h
LN-405 [6] = experiment: Cell cycle arrest in human LN405 cells assessed as accumulation at G0/G1 phase at IC50 after 72 hrs by propidium iodide staining-based flow cytometric method relative to control; format: functional
LN-405 [7] = experiment: Cell cycle arrest in human LN405 cells assessed as decrease in cell levels at S phase at IC50 after 72 hrs by propidium iodide staining-based flow cytometric method; format: functional

CC1CCN(c2cc(-c3ccc4ccccc4c3)c3nc(-c4ccc5ccccc5c4)cn3c2)CC1
Activity (LN-405 [1]): inactive

CC1CCN(c2cc(-c3ccc(-c4ccccc4)cc3)c3nc(-c4ccc(-c5ccccc5)cc4)cn3c2)CC1
Activity (LN-405 [1]): inactive

COc1ccc(-c2cn3cc(N4CCC(C)CC4)cc(-c4ccc(OC)cc4)c3n2)cc1
viability at 100 µM (LN-405 [2]): 80%

CC1CCN(c2cc(-c3ccccc3)c3nc(-c4ccccc4)cn3c2)CC1
viability at 100 µM (LN-405 [2]): 6% | IC50 (LN-405 [3]): 10 µM | Activity (LN-405 [4]): 14% | IC50 [5]: 480 µM | Activity (LN-405 [6]): 99.2% | Activity (LN-405 [7]): Active

CC1CCN(c2cc(-c3ccc(Br)s3)c3nc(-c4ccc(Br)s4)cn3c2)CC1
Activity (LN-405 [1]): inactive

CC1CCN(c2cc(-c3ccc(F)cc3)c3nc(-c4ccc(F)cc4)cn3c2)CC1
viability at 100 µM (LN-405 [2]): 32% | IC50 (LN-405 [3]): 75 µM | Activity (LN-405 [4]): 0.9% | IC50 [5]: 844 µM | Activity (LN-405 [6]): 98.2% | Activity (LN-405 [7]): Active

CC1CCN(c2cc(-c3ccc(Br)cc3)c3nc(-c4ccc(Br)cc4)cn3c2)CC1
Activity (LN-405 [1]): inactive

CC1CCN(c2cc(-c3cccs3)c3nc(-c4cccs4)cn3c2)CC1
Activity (LN-405 [1]): inactive

Source: ChEMBL document CHEMBL4229475, “Synthesis of novel imidazopyridines and their biological evaluation as potent anticancer agents: A promising candidate for glioblastoma” (Bioorg Med Chem Lett, 2018)
